From article PMC6193555 (Nutrition and cancer, 2017) come the findings set out here.

In one test the target is c-Met (Homo sapiens, UniProt P08581). As to the kind of experiment: Z'-LYTE cell-free kinase assay, positive control. In kind it is biochemical.
Another test deals with c-Met (M1250T) (Homo sapiens, UniProt P08581, M1250T). The test can be described thus: Z'-LYTE cell-free kinase assay. Format: biochemical.
c-Met (M1250T), sequence (P08581 956-1390 M1250T limits assumed): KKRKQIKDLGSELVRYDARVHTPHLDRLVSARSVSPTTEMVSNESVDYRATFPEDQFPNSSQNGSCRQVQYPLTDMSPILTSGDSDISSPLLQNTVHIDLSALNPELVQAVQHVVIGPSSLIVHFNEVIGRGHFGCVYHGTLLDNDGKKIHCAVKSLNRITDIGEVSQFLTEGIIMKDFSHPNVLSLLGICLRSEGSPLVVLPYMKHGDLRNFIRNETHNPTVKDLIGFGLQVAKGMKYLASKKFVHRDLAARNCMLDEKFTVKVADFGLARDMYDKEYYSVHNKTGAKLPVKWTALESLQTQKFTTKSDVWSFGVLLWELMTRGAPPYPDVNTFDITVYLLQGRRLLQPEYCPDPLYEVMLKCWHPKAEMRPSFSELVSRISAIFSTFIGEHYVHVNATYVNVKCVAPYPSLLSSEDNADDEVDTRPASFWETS

c-Met, sequence (P08581 25-307): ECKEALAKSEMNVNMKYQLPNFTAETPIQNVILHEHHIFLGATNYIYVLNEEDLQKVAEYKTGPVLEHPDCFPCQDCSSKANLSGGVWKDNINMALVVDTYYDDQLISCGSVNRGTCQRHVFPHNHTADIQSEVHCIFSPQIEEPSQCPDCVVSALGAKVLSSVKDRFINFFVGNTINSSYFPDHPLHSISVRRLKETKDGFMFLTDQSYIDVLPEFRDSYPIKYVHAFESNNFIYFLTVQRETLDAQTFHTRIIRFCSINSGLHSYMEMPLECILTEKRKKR
c-Met, sequence (P08581 308-1390): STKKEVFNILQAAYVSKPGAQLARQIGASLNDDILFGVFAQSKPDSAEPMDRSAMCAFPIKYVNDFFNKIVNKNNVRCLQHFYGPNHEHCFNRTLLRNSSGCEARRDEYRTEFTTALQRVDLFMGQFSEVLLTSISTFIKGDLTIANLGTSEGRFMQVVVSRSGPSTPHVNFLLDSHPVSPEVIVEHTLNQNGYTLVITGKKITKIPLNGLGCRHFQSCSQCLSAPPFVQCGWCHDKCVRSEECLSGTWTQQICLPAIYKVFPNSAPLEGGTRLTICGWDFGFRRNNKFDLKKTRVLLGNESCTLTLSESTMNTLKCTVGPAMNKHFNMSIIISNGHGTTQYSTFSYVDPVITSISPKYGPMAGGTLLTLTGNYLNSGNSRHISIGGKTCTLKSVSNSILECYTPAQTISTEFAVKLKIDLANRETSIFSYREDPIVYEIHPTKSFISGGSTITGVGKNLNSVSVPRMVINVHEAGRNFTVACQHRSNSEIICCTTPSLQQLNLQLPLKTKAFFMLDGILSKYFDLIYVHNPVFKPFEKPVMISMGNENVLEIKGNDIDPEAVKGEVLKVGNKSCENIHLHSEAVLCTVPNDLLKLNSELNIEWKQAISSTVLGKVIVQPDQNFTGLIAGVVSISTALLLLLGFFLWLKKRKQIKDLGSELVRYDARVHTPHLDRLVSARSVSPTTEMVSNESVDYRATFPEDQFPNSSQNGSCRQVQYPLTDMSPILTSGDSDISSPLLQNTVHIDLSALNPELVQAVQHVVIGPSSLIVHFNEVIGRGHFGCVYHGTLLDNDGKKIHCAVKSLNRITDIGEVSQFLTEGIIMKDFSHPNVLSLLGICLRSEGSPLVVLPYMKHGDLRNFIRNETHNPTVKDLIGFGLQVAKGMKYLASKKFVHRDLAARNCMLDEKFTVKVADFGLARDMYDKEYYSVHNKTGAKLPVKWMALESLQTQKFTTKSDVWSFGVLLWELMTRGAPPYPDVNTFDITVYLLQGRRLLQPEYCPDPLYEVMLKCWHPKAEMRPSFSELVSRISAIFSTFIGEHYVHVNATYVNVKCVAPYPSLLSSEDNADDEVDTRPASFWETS

Turning to `C/C=C(/C=O)[C@@H](CC=O)CC(=O)OCCc1ccc(O)cc1` [(–)-oleocanthal], the “Z'-LYTE cell-free kinase assay, positive control” value on c-Met is on record as “(–)-oleocanthal was utilized as a positive control in Z'-LYTE cell free assay as a documented c-Met inhibitory phenolic”.
Consider `C[C@@H]1O[C@@H](OC[C@H]2O[C@@H](Oc3c(-c4ccc(O)c(O)c4)oc4cc(O)cc(O)c4c3=O)[C@H](O)[C@@H](O)[C@@H]2O)[C@H](O)[C@H](O)[C@H]1O` [compound 6, quercetin 3-O-[α-L-^1C4-rhamnopyranosyl 1'”→6” β-D-^4C1-glucopyranoside]], for which the IC50 (in general, the concentration at which inhibition is half-maximal) against c-Met (M1250T) was determined as 8.5 µM. This lies in the single-digit micromolar range.
